This note sets out measurements from paper PMC6858323, “Multiple conformations facilitate PilT function in the type IV pilus” (Nature Communications, 2019).

Assay [1] concerns the target T1, PilT^Gm (PilT4 from Geobacter metallireducens) (Geobacter metallireducens, UniProt Q39VU6).
T1 construct: gene pilT-4; hexamer; domains N2D residues 1-100, CTD 101-353
The assay is described as follows: X-ray crystal structure (OCOCOC). The following applies: preincubated with Mg2+ and ATP, unbound nucleotide removed, pH 7.6; nucleotide-binding site.

Assay [2] deals with T1, PilT^Gm (PilT4 from Geobacter metallireducens). The assay is described as follows: X-ray crystal structure (anisotropic, about […] A). The following applies: 2 mM ANP, 2 mM MgCl2, pH 7.9 reservoir; four of six nucleotide-binding sites, ADP in the other two; CCOCCO conformation.

T1 sequence (Q39VU6 entry or part of it): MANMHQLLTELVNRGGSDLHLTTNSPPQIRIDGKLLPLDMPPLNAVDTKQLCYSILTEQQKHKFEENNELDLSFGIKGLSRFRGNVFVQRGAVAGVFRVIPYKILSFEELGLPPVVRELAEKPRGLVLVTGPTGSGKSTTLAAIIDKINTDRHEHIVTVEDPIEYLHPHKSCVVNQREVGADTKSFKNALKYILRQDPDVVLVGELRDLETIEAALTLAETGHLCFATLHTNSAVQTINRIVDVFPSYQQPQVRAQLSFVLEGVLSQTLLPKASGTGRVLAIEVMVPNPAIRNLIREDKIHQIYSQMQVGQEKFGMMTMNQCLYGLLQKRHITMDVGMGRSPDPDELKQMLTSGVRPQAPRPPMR

`Nc1ncnc2c1ncn2[C@@H]1O[C@H](COP(=O)(O)OP(=O)(O)O)[C@@H](O)[C@H]1O` [ADP]: in assay [1], the “X-ray crystal structure (OCOCOC)” value was “An isomorphous structure with high ADP occupancy was obtained”.

With `Nc1ncnc2c1ncn2[C@@H]1O[C@H](COP(=O)(O)OP(=O)(O)NP(=O)(O)O)[C@@H](O)[C@H]1O` [ANP], in assay [2], the “X-ray crystal structure (anisotropic, about 4.0 A)” value is listed as “density consistent with ANP could be modeled into four of the six nucleotide-binding sites”.
